# Data from ChEMBL document CHEMBL1909046, “DrugMatrix in vitro pharmacology data”.
# Tests used:
# [1] = target: Cannabinoid receptor 1 (Homo sapiens, UniProt P21554); format: cell membranes, Membrane; conditions: chem-1; also: in other assays of this panel Not Active means under 50% inhibition at 10 µM
# [2] = target: T1, Cytochrome P450 1A2 (Homo sapiens, UniProt P05177); conditions: bti-tn-5b1-4; also: in other assays of this panel Not Active means under 50% inhibition at 10 µM
# T1 sequence (P05177 whole entry): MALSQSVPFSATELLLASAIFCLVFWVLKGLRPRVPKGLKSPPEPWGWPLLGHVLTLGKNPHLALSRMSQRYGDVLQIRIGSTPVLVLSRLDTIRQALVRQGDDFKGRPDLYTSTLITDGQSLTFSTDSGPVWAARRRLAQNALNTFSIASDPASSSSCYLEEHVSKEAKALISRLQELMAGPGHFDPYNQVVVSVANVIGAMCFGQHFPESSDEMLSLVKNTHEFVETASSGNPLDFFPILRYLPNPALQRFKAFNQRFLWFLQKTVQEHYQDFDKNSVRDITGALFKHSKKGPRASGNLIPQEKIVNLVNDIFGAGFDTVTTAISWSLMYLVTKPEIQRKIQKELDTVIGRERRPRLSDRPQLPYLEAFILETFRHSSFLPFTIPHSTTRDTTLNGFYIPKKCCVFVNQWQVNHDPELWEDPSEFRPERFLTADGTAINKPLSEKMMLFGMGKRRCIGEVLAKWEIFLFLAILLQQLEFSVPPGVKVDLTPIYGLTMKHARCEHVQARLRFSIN
# [3] = target: Carbonic anhydrase 2 (Homo sapiens, UniProt P00918); assay: DRUGMATRIX: Carbonic Anhydrase II enzyme inhibition (substrate: 4-Nitrophenyl acetate (4-NPA)); format: tissue-based, Erythrocyte; conditions: erythrocyte; Not Active = under 50% inhibition at 10 µM
# [4] = target: T2, Estrogen receptor (Homo sapiens, UniProt P03372); conditions: sf9; also: in other assays of this panel Not Active means under 50% inhibition at 10 µM
# T2 sequence (P03372 whole entry): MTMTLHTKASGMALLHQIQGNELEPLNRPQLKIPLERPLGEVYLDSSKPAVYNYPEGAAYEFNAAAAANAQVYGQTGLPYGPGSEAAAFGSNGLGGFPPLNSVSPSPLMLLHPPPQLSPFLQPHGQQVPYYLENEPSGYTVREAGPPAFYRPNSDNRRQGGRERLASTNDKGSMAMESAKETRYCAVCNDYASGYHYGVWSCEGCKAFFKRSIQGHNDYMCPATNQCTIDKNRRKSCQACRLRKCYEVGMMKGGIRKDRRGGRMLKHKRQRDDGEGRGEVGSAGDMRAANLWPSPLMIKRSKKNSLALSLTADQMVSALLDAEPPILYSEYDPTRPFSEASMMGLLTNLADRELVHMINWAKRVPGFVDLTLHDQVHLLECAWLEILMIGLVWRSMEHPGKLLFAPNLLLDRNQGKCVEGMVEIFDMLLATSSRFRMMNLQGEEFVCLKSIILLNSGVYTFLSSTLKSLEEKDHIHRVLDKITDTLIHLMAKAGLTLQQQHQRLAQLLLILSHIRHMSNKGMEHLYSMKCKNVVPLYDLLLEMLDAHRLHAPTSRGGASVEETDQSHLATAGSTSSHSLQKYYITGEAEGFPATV
# [5] = DRUGMATRIX: Platelet-Derived Growth Factor (PDGF) radioligand binding (ligand: [125I] PDGF); format: cell-based; conditions: nih3t3; Not Active = under 50% inhibition at 10 µM
# [6] = target: T3, 3-hydroxy-3-methylglutaryl-coenzyme A reductase (Homo sapiens, UniProt P04035); parameters: species or system Escherichia coli;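 also: enzyme inhibition assay of HMG-CoA reductase using radiolabeled [14C]HMG-CoA as substrate; in other assays of this panel Not Active means under 50% inhibition at 10 µM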
# T3 sequence (P04035 whole entry): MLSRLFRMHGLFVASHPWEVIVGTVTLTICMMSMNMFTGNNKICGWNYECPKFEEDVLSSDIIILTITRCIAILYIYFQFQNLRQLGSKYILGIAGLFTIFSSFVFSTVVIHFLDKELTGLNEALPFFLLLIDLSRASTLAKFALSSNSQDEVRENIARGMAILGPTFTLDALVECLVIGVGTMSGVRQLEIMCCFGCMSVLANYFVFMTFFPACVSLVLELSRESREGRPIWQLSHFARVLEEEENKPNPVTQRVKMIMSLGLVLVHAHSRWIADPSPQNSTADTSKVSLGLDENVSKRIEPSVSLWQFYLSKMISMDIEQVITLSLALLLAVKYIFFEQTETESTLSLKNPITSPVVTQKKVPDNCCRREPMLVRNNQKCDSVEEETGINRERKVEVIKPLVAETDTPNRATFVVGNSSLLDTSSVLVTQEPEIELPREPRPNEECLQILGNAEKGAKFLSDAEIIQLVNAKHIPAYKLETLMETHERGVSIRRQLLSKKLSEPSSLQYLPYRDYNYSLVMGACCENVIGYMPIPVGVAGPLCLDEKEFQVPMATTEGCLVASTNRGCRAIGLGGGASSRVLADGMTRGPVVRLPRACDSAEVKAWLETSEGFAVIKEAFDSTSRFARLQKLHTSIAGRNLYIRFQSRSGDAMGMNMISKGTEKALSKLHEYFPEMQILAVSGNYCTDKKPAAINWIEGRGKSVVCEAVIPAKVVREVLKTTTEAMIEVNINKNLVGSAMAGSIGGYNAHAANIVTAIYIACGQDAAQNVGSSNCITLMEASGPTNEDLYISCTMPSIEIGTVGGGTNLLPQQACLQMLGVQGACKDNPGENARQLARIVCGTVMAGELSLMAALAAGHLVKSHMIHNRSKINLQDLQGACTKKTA
# [7] = target: T4, Endothelin-1 receptor (Homo sapiens, UniProt P25101); format: cell membranes, CHO-K1, Membrane; conditions: cho-k1; also: in other assays of this panel Not Active means under 50% inhibition at 10 µM
# T4 sequence (P25101 whole entry): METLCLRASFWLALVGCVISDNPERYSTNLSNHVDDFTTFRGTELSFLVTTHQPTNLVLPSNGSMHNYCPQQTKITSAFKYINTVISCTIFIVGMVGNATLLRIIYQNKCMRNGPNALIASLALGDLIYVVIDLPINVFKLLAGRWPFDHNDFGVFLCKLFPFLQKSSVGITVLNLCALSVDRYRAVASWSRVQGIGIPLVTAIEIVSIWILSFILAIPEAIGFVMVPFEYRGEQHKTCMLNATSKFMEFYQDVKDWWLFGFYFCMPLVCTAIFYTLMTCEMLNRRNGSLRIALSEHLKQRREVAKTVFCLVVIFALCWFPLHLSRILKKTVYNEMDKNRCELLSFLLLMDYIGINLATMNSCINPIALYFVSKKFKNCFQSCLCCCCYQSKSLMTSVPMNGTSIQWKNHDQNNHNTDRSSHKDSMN
# [8] = target: Mitogen-activated protein kinase 1 (Homo sapiens, UniProt P28482); assay: DRUGMATRIX: Protein Serine/Threonine Kinase, ERK2 enzyme inhibition (substrate: Myelin Basic Protein); parameters: species or system Escherichia coli; conditions: Not Active = under 50% inhibition at 10 µM; read-out: IC50
# [9] = target: Delta-type opioid receptor (Homo sapiens, UniProt P41143); format: cell membranes, HEK293, Membrane; conditions: hek293; also: in other assays of this panel Not Active means under 50% inhibition at 10 µM
# Chain of Delta-type opioid receptor (P41143 whole entry): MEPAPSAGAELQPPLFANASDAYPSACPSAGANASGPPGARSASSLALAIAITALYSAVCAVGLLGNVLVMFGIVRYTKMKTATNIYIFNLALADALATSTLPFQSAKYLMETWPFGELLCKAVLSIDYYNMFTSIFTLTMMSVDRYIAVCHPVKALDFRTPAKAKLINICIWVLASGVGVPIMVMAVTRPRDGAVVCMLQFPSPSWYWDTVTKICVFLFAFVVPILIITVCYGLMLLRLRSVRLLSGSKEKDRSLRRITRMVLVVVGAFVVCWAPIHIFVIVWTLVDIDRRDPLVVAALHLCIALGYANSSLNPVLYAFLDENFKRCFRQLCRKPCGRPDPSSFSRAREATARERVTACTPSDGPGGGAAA
# Chain of Cannabinoid receptor 1 (P21554 whole entry): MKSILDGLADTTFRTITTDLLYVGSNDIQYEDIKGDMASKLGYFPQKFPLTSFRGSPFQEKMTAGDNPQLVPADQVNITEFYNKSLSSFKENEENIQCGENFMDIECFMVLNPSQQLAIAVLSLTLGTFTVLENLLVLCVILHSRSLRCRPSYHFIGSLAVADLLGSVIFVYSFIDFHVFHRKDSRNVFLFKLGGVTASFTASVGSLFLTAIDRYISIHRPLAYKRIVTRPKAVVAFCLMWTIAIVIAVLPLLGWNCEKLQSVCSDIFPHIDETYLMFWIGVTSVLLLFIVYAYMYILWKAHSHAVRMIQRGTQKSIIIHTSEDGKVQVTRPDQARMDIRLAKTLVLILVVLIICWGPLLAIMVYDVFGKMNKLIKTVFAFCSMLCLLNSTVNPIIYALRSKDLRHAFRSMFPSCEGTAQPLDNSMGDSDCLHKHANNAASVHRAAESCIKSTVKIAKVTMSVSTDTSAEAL
# Chain of Mitogen-activated protein kinase 1 (P28482 whole entry): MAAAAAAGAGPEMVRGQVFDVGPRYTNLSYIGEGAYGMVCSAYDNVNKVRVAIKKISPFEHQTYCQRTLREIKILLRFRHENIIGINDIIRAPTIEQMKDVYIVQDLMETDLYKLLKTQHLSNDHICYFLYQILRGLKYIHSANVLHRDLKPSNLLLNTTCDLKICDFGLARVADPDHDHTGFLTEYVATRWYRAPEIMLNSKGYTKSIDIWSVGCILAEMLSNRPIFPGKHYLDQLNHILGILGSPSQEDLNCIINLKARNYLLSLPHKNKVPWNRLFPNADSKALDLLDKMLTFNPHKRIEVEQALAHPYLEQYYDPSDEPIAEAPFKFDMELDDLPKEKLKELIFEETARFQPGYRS
sequence,measurement,setting,value
LIPOPOLYSACCHARIDE E. COLI O55:B5,IC50,[1],Not Active
same,Ki,[1],Not Active
same,IC50,[2],Not Active
same,Ki,[2],Not Active
same,IC50,[3],Not Active
same,Ki,[3],Not Active
same,IC50,[4],Not Active
same,Ki,[4],Not Active
same,IC50,[5],Not Active
same,Ki,[5],Not Active
same,IC50,[6],Not Active
same,Ki,[6],Not Active
same,IC50,[7],Not Active
same,Ki,[7],Not Active
same,IC50,[8],321 nM
same,IC50,[9],Not Active
same,Ki,[9],Not Active
